Patent US20230183219A1, “CONDENSED SUBSTITUTED HYDROPYRROLES AS ANTAGONISTS OF THE MUSCARINIC ACETYLCHOLINE RECEPTOR M4” (Vanderbilt University, priority 2020, published 2023)

Target: T1, Human M4 (Homo sapiens, UniProt P08173)
T1 construct: Human or rat M4 cDNA, along with the chimeric G protein Gqi5, were transfected into Chinese hamster ovary (CHO-K1) cells; expressed in transfected cells; host or cells: CHO-K1 (Chinese hamster ovary, ATCC), stably co-expressing Gqi5
T1 sequence (P08173 1-479): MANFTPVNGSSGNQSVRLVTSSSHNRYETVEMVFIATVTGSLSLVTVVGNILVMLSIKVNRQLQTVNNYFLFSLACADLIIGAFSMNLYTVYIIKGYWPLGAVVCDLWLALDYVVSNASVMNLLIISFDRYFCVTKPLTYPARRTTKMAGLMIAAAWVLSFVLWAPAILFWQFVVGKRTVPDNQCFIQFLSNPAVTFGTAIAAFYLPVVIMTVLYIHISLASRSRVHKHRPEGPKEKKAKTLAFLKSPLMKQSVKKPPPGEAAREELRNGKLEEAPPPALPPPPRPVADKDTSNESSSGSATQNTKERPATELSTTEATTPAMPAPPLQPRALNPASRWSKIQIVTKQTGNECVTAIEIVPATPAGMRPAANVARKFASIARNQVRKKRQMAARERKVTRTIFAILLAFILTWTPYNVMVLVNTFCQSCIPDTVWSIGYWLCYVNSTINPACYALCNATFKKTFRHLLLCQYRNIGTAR
Test: mAChR M4 cell-based functional assay (calcium flux, decrease of EC80 acetylcholine response)
Details: for remaining activity at 30 µM: read-out: Human M4 Emin; for IC50: M4/Gqi5/CHO-K1 cells, decrease of response to EC80 acetylcholine
Experimental: Human or rat M4 cDNA, along with the chimeric G protein Gqi5, were transfected into Chinese hamster ovary (CHO-K1) cells purchased from the American Type Culture Collection using Lipofectamine2000. M4/Gqi5/CHO cells were grown in Ham's F-12 medium containing 10% heat-inactivated fetal bovine serum (FBS), 20 mM HEPES, 500 μg/mL G418 sulfate, and 200 μg/mL Hygromycin B.
For high throughput measurement of agonist-evoked increases in intracellular calcium, CHO-K1 cells stably expressing muscarinic receptors were plated in growth medium lacking G418 and hygromycin at 15,000 cells/20 μL/well in Greiner 384-well black-walled, tissue culture (TC)-treated, clear-bottom plates (VWR). Cells were incubated overnight at 37° C. and 5% CO2. The next day, cells were washed using an ELX 405 (BioTek) with assay buffer; the final volume was then aspirated to 20 μL. Next, 20 μL of a 2.3 μM stock of Fluo-4/acetoxymethyl ester (Invitrogen, Carlsbad, Calif.), prepared as a 2.3 mM stock in DMSO and mixed in a 1:1 ratio with 10% (w/v) Pluronic F-127 and diluted in assay buffer, was added to the wells and the cell plates were incubated for 50 min at 37° C. and 5% CO2. Dye was removed by washing with the ELX 405 and the final volume was aspirated to 20 μL. Compound master plates were formatted in a 10 point concentration-response curve (CRC) format (1:3 dilutions) in 100% DMSO with a starting concentration of 10 or 1 mM using a BRAVO liquid handler (Agilent). Test compound CRCs were then transferred to daughter plates (240 nL) using the Echo acoustic plate reformatter (Labcyte, Sunnyvale, Calif.) and then diluted into assay buffer (40 μL) to a 2×stock using a Thermo Fisher Combi (Thermo Fisher Scientific, Waltham, Mass.).
Calcium flux was measured using the Functional Drug Screening System (FDSS) 6000 or 7000 (Hamamatsu Corporation, Tokyo, Japan) as an increase in the fluorescent static ratio. Compounds were applied to cells (20 μL, 2×) using the automated system of the FDSS at 2 seconds into the protocol and the data were collected at 1 Hz. At 143 s, 10 μL of an EC20 concentration of the muscarinic receptor agonist acetylcholine was added (5×), followed by the addition of 12 μL of an EC80 concentration of acetylcholine at the 268 s time point (5×). Agonist activity was analyzed as a concentration-dependent increase in calcium mobilization upon compound addition. Positive allosteric modulator activity was analyzed as a concentration-dependent increase in the EC20 acetylcholine response. Antagonist activity was analyzed as a concentration-dependent decrease in the EC80 acetylcholine response; for the purposes of the tables herein, an IC50 (inhibitory concentration 50) was calculated as a concentration-dependent decrease of the response elicited by an EC80 concentration of acetylcholine. Concentration-response curves were generated using a four-parameter logistical equation in XLFit curve fitting software (IDBS, Bridgewater, N.J.) for Excel (Microsoft, Redmond, Wash.) or Prism (GraphPad Software, Inc., San Diego, Calif.) or the Dotmatics software platform (Dotmatics, Bishop's Stortford, UK).
Compounds were synthesized as described above. Activity (IC50 and Emin) was determined in the mAChR M4 cell-based functional assay as described above and the data are shown in Table 2.

Row | remaining activity at 30 µM (% ACh maximum at 30 μM) | IC50 | Human M4 Emin (% ACh maximum at 30 μM) | Compound
1 | 3% | 142 nM |  | Fc1ccc(F)c(-c2cc(C(F)(F)F)c(N[C@H]3C[C@@H]4CN(C[C@H]5COCCO5)C[C@@H]4C3)nn2)c1 [Example 70, (3aR,5s,6aS)-2-(((S)-1,4-dioxan-2-yl)methyl)-N-(6-(2,5-difluorophenyl)-4-(trifluoromethyl)pyridazin-3-yl)octahydro-cyclopenta[c]pyrrol-5-amine]
2 | 3% | 286 nM |  | Fc1ccc(-c2cc(C(F)(F)F)c(N[C@H]3C[C@@H]4CN(CC5CCOCC5)C[C@@H]4C3)nn2)c(F)c1 [Example 82, (3aR,5s,6aS)-N-(6-(2,4-difluorophenyl)-4-(trifluoro-methyl)pyridazin-3-yl)-2-((tetrahydro-2H-pyran-4-yl)methyl)octahydro-cyclopenta[c]pyrrol-5-amine]
3 |  | 76.1 nM | 5% | Cn1cc2cc(-c3cc(C(F)(F)F)c(N[C@H]4C[C@@H]5CN(CC6CCCOC6)C[C@@H]5C4)nn3)ccc2n1 (single isomer, unassigned) [Example 37]
4 | 3% | 242 nM |  | Cc1cc(-c2cc(C(F)(F)F)c(N[C@H]3C[C@@H]4CN(CC5CCOCC5)C[C@@H]4C3)nn2)c(C)cc1F [Example 51, (3aR,5s,6aS)-N-(6-(4-fluoro-2,5-dimethylphenyl)-4-(trifluoromethyl)pyridazin-3-yl)-2-((tetrahydro-2H-pyran-4-yl)methyl)octahydro-cyclopenta[c]pyrrol-5-amine]
5 | 3% | 278 nM |  | COc1ccc(F)c(-c2cc(C(F)(F)F)c(N[C@H]3C[C@@H]4CN(CC5CCOCC5)C[C@@H]4C3)nn2)c1 [Example 57, (3aR,5s,6aS)-N-(6-(2-fluoro-5-methoxyphenyl)-4-(trifluoromethyl)pyridazin-3-yl)-2-((tetrahydro-2H-pyran-4-yl)methyl)octahydro-cyclopenta[c]pyrrol-5-amine]
6 | 2% | 3 nM |  | FC(F)(F)c1cc(N2CCCC2)nnc1N[C@H]1C[C@@H]2CN(CC3CCOCC3)C[C@@H]2C1 [Example 142, (3aR,5s,6aS)-N-(6-(pyrrolidin-1-yl)-4-(trifluoro-methyl)pyridazin-3-yl)-2-((tetrahydro-2H-pyran-4-yl)methyl)octahydro-cyclopenta[c]pyrrol-5-amine]
7 | 3% | 35.3 nM |  | Fc1ccc(C(F)(F)F)c(-c2cc(C(F)(F)F)c(N[C@H]3C[C@@H]4CN(CC5CCOCC5)C[C@@H]4C3)nn2)c1 [Example 45, (3aR,5s,6aS)-N-(6-(5-fluoro-2-(trifluoromethyl)phenyl)-4-(trifluoromethyl)pyridazin-3-yl)-2-((tetrahydro-2H-pyran-4-yl)methyl)octahydro-cyclopenta[c]pyrrol-5-amine]
8 | 3% | 8.9 nM |  | FC(F)(F)c1cc(-c2ccc3ncsc3c2)nnc1N[C@H]1C[C@@H]2CN(CC3CCOCC3)C[C@@H]2C1 [Example 112, (3aR,5s,6aS)-N-(6-(benzo[d]thiazol-6-yl)-4-(trifluoromethyl)pyridazin-3-yl)-2-((tetrahydro-2H-pyran-4-yl)methyl)octahydro-cyclopenta[c]pyrrol-5-amine]
9 | 3% | 33.2 nM |  | [2H]C([2H])(C1CCOCC1)N1C[C@H]2C[C@H](Nc3nnc(-c4ccc(OC)cc4C)cc3C(F)(F)F)C[C@H]2C1 [Example 122, (3aR,5s,6aS)-N-(6-(4-methoxy-2-methylphenyl)-4-(trifluoromethyl)pyridazin-3-yl)-2-((tetrahydro-2H-pyran-4-yl)methyl-d2)octahydro-cyclopenta[c]pyrrol-5-amine]
10 | 27% | > 10000 nM |  | Cc1cc(CN2C[C@H]3C[C@H](Nc4ncc(-c5cc(F)ccc5Cl)cn4)C[C@H]3C2)ccc1F [Example 9, (3aR,5s,6aS)-N-(5-(2-chloro-5-fluorophenyl)pyrimidin-2-yl)-2-(4-fluoro-3-methylbenzyl)octahydro-cyclopenta[c]pyrrol-5-amine]
